# Measured values reported in publication PMC9926475 (ACS chemical neuroscience, 2022).
# Read-outs that look alike come from different tables or passages of the source.
# Columns and labels:
# male mice = assay: Forced swim test immobility time 24 h after i.p. treatment; type: in vivo, mouse; conditions: for Minimal effective dose to reduce immobility time in the forced swim test: 24 h after injection; for Shape of dose response curve for forced swim test immobility: tested range up to 100 mg/kg
# mice = conditions: i.p., cited from earlier work; for Lowest dose reducing forced swim test immobility time: ref [4]
# [1] = Pharmacokinetic studies in plasma and brain of mice after i.p. injection; type: in vivo, mouse; conditions: for Cmax (mean ± SEM) Brain: normalized to free base dose; for Sex-dependent difference: Brain Total exposure (AUC) / Sex-dependent difference: Plasma Total exposure (AUC): standard t-test, F female, M male, NS not statistically different; for Brain level at 4 h post-treatment: LLOQ 5.0 ng/ml; for Brain Cmax and AUC compared to equivalent dosing with (2R,6R)-HNK: from Table 1
# [2] = i.p.; ref [4]; cited from earlier work
# rats = conditions: 10 mg/kg, i.p., ref [26]; cited from earlier work
# [3] = target: N-methyl-D-aspartate receptor (NMDAR); conditions: cited from earlier work
# [4] = i.p. administration to mice, ref [19], cited from earlier work
# [5] = both sexes, i.p. 5 mg/kg, 10 min was the earliest time point
# [6] = read-out: NMDAR binding affinity, ref [31]
# [7] = females, but not males, i.p. 5 mg/kg
SMILES,Minimal effective dose to reduce immobility time in the forced swim test (male mice),"Cmax (mean ± SEM) Brain ([1]; female CD-1 mice, i.p. 5 mg/kg)","B:P ratio (brain to plasma AUC ratio) ([1]; female mice, i.p. 5 mg/kg)","t1/2 Brain (terminal half-life) ([1]; female mice, i.p. 5 mg/kg)","t1/2 Plasma (terminal half-life) ([1]; female mice, i.p. 5 mg/kg)","Cmax (mean ± SEM) Brain ([1]; male CD-1 mice, i.p. 5 mg/kg)","B:P ratio (brain to plasma AUC ratio) ([1]; male mice, i.p. 5 mg/kg)","t1/2 Brain (terminal half-life) ([1]; male mice, i.p. 5 mg/kg)","t1/2 Plasma (terminal half-life) ([1]; male mice, i.p. 5 mg/kg)",Sex-dependent difference: Brain Total exposure (AUC) [1],Sex-dependent difference: Plasma Total exposure (AUC) [1],other results
"N[C@]1(c2ccccc2Cl)CCC[C@H](O)C1=O [(2S,6S)-HNK, (2S,6S)-hydroxynorketamine]",30 mg/kg,993 ± 27.1 ng/g•mg/kg,1.2,44 min,46 min,712 ± 47.3 ng/g•mg/kg,1.0,41 min,44 min,F > M,F > M,"Shape of dose response curve for forced swim test immobility (male mice): did not demonstrate U-shaped dose responses; Lowest dose reducing forced swim test immobility time (mice): 25 mg/kg; Effect on forced swim test immobility time and measures of anhedonia following chronic stress (mice; mice, 20 mg/kg, ref [23]): reduced forced swim test immobility time and measures of anhedonia; Cmax and AUC, fold greater than those of (2R,6R)-HNK ([1]; male mice, equivalent doses): 2-3 fold; Lowest dose reducing escape failures in the learned helplessness test [2]: 75 mg/kg"
"N[C@@]1(c2ccccc2Cl)C[C@H](O)CCC1=O [(2R,4R)-HNK]",–,490 ± 26.4 ng/g•mg/kg,1.2,29 min,29 min,431 ± 43.5 ng/g•mg/kg,1.3,38 min,35 min,M > F,M > F,–
"N[C@@]1(c2ccccc2Cl)CC[C@@H](O)CC1=O [(2R,5R)-HNK]",–,152 ± 8.8 ng/g•mg/kg,1.4,28 min,31 min,142 ± 5.6 ng/g•mg/kg,1.2,27 min,30 min,–,M > F,–
"N[C@]1(c2ccccc2Cl)CC[C@@H](O)CC1=O [(2S,5R)-HNK]",–,258 ± 15.4 ng/g•mg/kg,1.0,31 min,28 min,242 ± 9.8 ng/g•mg/kg,0.7,40 min,37 min,M > F,M > F,"Tmax brain ([1]; male mice, i.p. 5 mg/kg): 30 min"
"C[C@@H]1CC[C@@](N)(c2ccccc2Cl)C(=O)[C@@H]1O [(5R)-methyl-(2R,6R)-HNK, (5R)-methyl-(2R,6R)-hydroxynorketamine]",1 mg/kg,352 ± 22.4 ng/g•mg/kg,0.4,41 min,49 min,324 ± 13.0 ng/g•mg/kg,0.4,48 min,49 min,M > F,M > F,"Doses at which immobility time was reduced relative to vehicle (male mice; 24 h after treatment): 1 to 10 mg/kg; Brain to plasma AUC ratio ([1]; both sexes, i.p. 5 mg/kg): 0.4; Plasma elimination half-life ([1]; both sexes, i.p. 5 mg/kg): 49 min; Tmax brain [1, 5]: 10 min; Tmax plasma (time of observed maximal concentrations) [1, 5]: 10 min"
"N[C@]1(c2ccccc2Cl)CC[C@H](O)CC1=O [(2S,5S)-HNK]",–,129 ± 2.8 ng/g•mg/kg,1.3,17 min,34 min,138 ± 8.3 ng/g•mg/kg,1.2,16 min,27 min,–,–,"Brain level at 4 h post-treatment ([1]; both sexes, i.p. 5 mg/kg): below LLOQs"
"N[C@]1(c2ccccc2Cl)C[C@@H](O)CCC1=O [(2S,4S)-HNK]",–,234 ± 10.9 ng/g•mg/kg,0.9,35 min,42 min,127 ± 9.5 ng/g•mg/kg,0.7,34 min,39 min,F > M,F > M,–
"N[C@@]1(c2ccccc2Cl)CCC[C@@H](O)C1=O [(2R,6R)-HNK, (2R,6R)-hydroxynorketamine]",10 mg/kg,530 ± 17.2 ng/g•mg/kg,1.3,34 min,36 min,380 ± 19.3 ng/g•mg/kg,1.3,34 min,38 min,F > M,F > M,"Reversal of learned helplessness (rats): reversed learned helplessness; Shape of dose response curve for forced swim test immobility (male mice): did not demonstrate U-shaped dose responses; Ki ([3]; read-out: Ki, potency to bind or inhibit NMDARs, ref [4],[19],[31]-[35]): > 100 µM; Lowest dose reducing forced swim test immobility time (mice): 5 mg/kg; Effect on forced swim test immobility time (mice; mice, 10 mg/kg, ref [17]): reduced forced swim test immobility time; Time of peak plasma levels ([4]; plasma collected at 2.5 and 5 min post-injection): 2.5 min; Time of peak brain levels [4]: 5 min; Lowest dose reducing escape failures in the learned helplessness test [2]: 3 mg/kg"
"N[C@@]1(c2ccccc2Cl)CCC[C@H](O)C1=O [(2R,6S)-HNK]",1 mg/kg,166 ± 12.3 ng/g•mg/kg,0.7,23 min,47 min,173 ± 5.4 ng/g•mg/kg,0.6,43 min,55 min,M > F,M > F,"Shape of dose response curve for forced swim test immobility (male mice): U-shaped dose response curves; Ki [3, 6]: > 100 µM; Brain level at 4 h post-treatment [1, 7]: below LLOQs; Brain Cmax and AUC compared to equivalent dosing with (2R,6R)-HNK [1]: approximately two-fold lower"
"CNC1(c2ccccc2Cl)CCCCC1=O (stereo not shown) [ketamine, reference compound]",–,–,–,–,–,–,–,–,–,–,–,"Ki ([3]; read-out: Ki, inhibitory actions on NMDARs, ref [19],[31],[32]): 0.25 to 1.06 µM"
"N[C@]1(c2ccccc2Cl)C[C@H](O)CCC1=O [(2S,4R)-HNK]",–,190± 13.7 ng/g•mg/kg,1.0,21 min,47 min,160 ± 10.2 ng/g•mg/kg,0.9,23 min,48 min,–,–,"Brain level at 4 h post-treatment ([1]; both sexes, i.p. 5 mg/kg): below LLOQs"
"N[C@]1(c2ccccc2Cl)CCC[C@@H](O)C1=O [(2S,6R)-HNK]",3 mg/kg,177 ± 19.8 ng/g•mg/kg,1.4,45 min,47 min,117 ± 30.6 ng/g•mg/kg,1.2,45 min,45 min,F > M,F > M,"Shape of dose response curve for forced swim test immobility (male mice): U-shaped dose response curves; Ki [3, 6]: > 100 µM; Brain Cmax and AUC compared to equivalent dosing with (2R,6R)-HNK [1]: approximately three-fold lower"
"N[C@@]1(c2ccccc2Cl)C[C@@H](O)CCC1=O [(2R,4S)-HNK]",–,495 ± 28.7 ng/g•mg/kg,1.0,15 min,44 min,758 ± 21.4 ng/g•mg/kg,1.1,32 min,39 min,M > F,M > F,"Brain level at 4 h post-treatment [1, 7]: below LLOQs"
"N[C@@]1(c2ccccc2Cl)CC[C@H](O)CC1=O [(2R,5S)-HNK]",–,154 ± 3.9 ng/g•mg/kg,1.0,27 min,29 min,106 ± 6.8 ng/g•mg/kg,0.9,27 min,28 min,F > M,F > M,–
